{
  "source": "PubChem BioAssay AID2060900",
  "about": "(Molecular Pharmacology Branch, DTP, NCI, 2025)",
  "data": [
    {"tested_on": "521955-158-R2-J5-PDC complex spheroids, viability", "assay": "Anticancer human tumor 521955-158-R2-J5-PDC patient-derived pancreatic carcinoma cell line growth inhibition [RAS]", "conditions": "second compound 0.316 µM; first compound 0.0316 µM; stronger effect = lower value", "in_short": "(§1)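 Multi-cell-type spheroids: tumor cells plus HUVEC endothelial cells and mesenchymal stem cells. RAS-pathway inhibitors were combined with targeted agents, each dosed in half-log steps down from clinical Cmax, or from 10 microM when Cmax was unknown.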", "units": {"viability, T/C": "%"}, "values": [
      {"smiles": "CC(C)n1nc(-c2ccc3oc(N)nc3c2)c2c(N)ncnc21", "note": "+ C=CC(=O)N1CCN(c2nc(OCC3CCCN3C)nc3c(F)c(-c4nc(N)cc(C)c4C(F)(F)F)c(Cl)cc23)C(C)C1", "viability, T/C": 42.9},
      {"smiles": "CC(Nc1ccc2c(c1)OCCn1cc(N3C(=O)OCC3C(F)F)nc1-2)C(N)=O", "note": "(stereo unspecified) + C=CC(=O)N1CCN(c2nc(OCC3CCCN3C)nc3c(F)c(-c4nc(N)cc(C)c4C(F)(F)F)c(Cl)cc23)C(C)C1", "viability, T/C": 72.4},
      {"smiles": "C[C@@H](NC(=O)c1ncnc(N)c1Cl)c1ncc(C(=O)Nc2cc(C(F)(F)F)c(Cl)cn2)s1", "note": "+ C=CC(=O)N1CCN(c2nc(OCC3CCCN3C)nc3c(F)c(-c4nc(N)cc(C)c4C(F)(F)F)c(Cl)cc23)C(C)C1", "viability, T/C": 164},
      {"smiles": "O=C(c1ccc(F)c(F)c1Nc1ccc(I)cc1F)N1CC(O)([C@@H]2CCCCN2)C1", "note": "+ C=CC(=O)N1CCN(c2nc(OCC3CCCN3C)nc3c(F)c(-c4nc(N)cc(C)c4C(F)(F)F)c(Cl)cc23)C(C)C1", "viability, T/C": 62.6}
    ]},
    {"tested_on": "521955-158-R2-J5-PDC complex spheroids, viability", "assay": "Anticancer human tumor 521955-158-R2-J5-PDC cell line growth inhibition [RAS];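 note: spheroids also contain HUVEC endothelial cells and mesenchymal stem cells as stroma; compound exposure lasted seven days before the viability read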", "conditions": "second compound 0.316 µM; first compound 0.1 µM; stronger effect = lower value", "in_short": "as §1", "units": {"viability, T/C": "%"}, "values": [
      {"smiles": "CC(C)NCC(C(=O)N1CCN(c2ncnc3c2C(C)CC3O)CC1)c1ccc(Cl)cc1", "note": "(stereo unspecified) + C=CC(=O)N1CCN(c2nc(OCC3CCCN3C)nc3c(F)c(-c4nc(N)cc(C)c4C(F)(F)F)c(Cl)cc23)C(C)C1", "viability, T/C": 138},
      {"smiles": "CC(C)n1nc(-c2ccc3oc(N)nc3c2)c2c(N)ncnc21", "note": "+ C=CC(=O)N1CCN(c2nc(OCC3CCCN3C)nc3c(F)c(-c4nc(N)cc(C)c4C(F)(F)F)c(Cl)cc23)C(C)C1", "viability, T/C": 33.4},
      {"smiles": "CC(Nc1ccc2c(c1)OCCn1cc(N3C(=O)OCC3C(F)F)nc1-2)C(N)=O", "note": "(stereo unspecified) + C=CC(=O)N1CCN(c2nc(OCC3CCCN3C)nc3c(F)c(-c4nc(N)cc(C)c4C(F)(F)F)c(Cl)cc23)C(C)C1", "viability, T/C": 90.1},
      {"smiles": "C[C@@H](NC(=O)c1ncnc(N)c1Cl)c1ncc(C(=O)Nc2cc(C(F)(F)F)c(Cl)cn2)s1", "note": "+ C=CC(=O)N1CCN(c2nc(OCC3CCCN3C)nc3c(F)c(-c4nc(N)cc(C)c4C(F)(F)F)c(Cl)cc23)C(C)C1", "viability, T/C": 179},
      {"smiles": "O=C(c1ccc(F)c(F)c1Nc1ccc(I)cc1F)N1CC(O)([C@@H]2CCCCN2)C1", "note": "+ C=CC(=O)N1CCN(c2nc(OCC3CCCN3C)nc3c(F)c(-c4nc(N)cc(C)c4C(F)(F)F)c(Cl)cc23)C(C)C1", "viability, T/C": 48.1}
    ]},
    {"tested_on": "521955-158-R2-J5-PDC complex spheroids, viability", "assay": "Anticancer human tumor 521955-158-R2-J5-PDC cell line growth inhibition [RAS];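 note: spheroids also contain HUVEC endothelial cells and mesenchymal stem cells as stroma; compound exposure lasted seven days before the viability read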", "conditions": "second compound 0.316 µM; first compound 0.316 µM; stronger effect = lower value", "in_short": "as §1", "units": {"viability, T/C": "%"}, "values": [
      {"smiles": "CC(C)NCC(C(=O)N1CCN(c2ncnc3c2C(C)CC3O)CC1)c1ccc(Cl)cc1", "note": "(stereo unspecified) + C=CC(=O)N1CCN(c2nc(OCC3CCCN3C)nc3c(F)c(-c4nc(N)cc(C)c4C(F)(F)F)c(Cl)cc23)C(C)C1", "viability, T/C": 92.4},
      {"smiles": "CC(Nc1ccc2c(c1)OCCn1cc(N3C(=O)OCC3C(F)F)nc1-2)C(N)=O", "note": "(stereo unspecified) + C=CC(=O)N1CCN(c2nc(OCC3CCCN3C)nc3c(F)c(-c4nc(N)cc(C)c4C(F)(F)F)c(Cl)cc23)C(C)C1", "viability, T/C": 43.8},
      {"smiles": "C[C@@H](NC(=O)c1ncnc(N)c1Cl)c1ncc(C(=O)Nc2cc(C(F)(F)F)c(Cl)cn2)s1", "note": "+ C=CC(=O)N1CCN(c2nc(OCC3CCCN3C)nc3c(F)c(-c4nc(N)cc(C)c4C(F)(F)F)c(Cl)cc23)C(C)C1", "viability, T/C": 96},
      {"smiles": "O=C(c1ccc(F)c(F)c1Nc1ccc(I)cc1F)N1CC(O)([C@@H]2CCCCN2)C1", "note": "+ C=CC(=O)N1CCN(c2nc(OCC3CCCN3C)nc3c(F)c(-c4nc(N)cc(C)c4C(F)(F)F)c(Cl)cc23)C(C)C1", "viability, T/C": 33.8}
    ]},
    {"tested_on": "521955-158-R2-J5-PDC complex spheroids, viability", "assay": "Anticancer human tumor 521955-158-R2-J5-PDC cell line growth inhibition [RAS];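 note: spheroids also contain HUVEC endothelial cells and mesenchymal stem cells as stroma; compound exposure lasted seven days before the viability read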", "conditions": "second compound 0.316 µM; first compound 1 µM; stronger effect = lower value", "in_short": "as §1", "units": {"viability, T/C": "%"}, "values": [
      {"smiles": "CC(C)NCC(C(=O)N1CCN(c2ncnc3c2C(C)CC3O)CC1)c1ccc(Cl)cc1", "note": "(stereo unspecified) + C=CC(=O)N1CCN(c2nc(OCC3CCCN3C)nc3c(F)c(-c4nc(N)cc(C)c4C(F)(F)F)c(Cl)cc23)C(C)C1", "viability, T/C": 72.1},
      {"smiles": "CC(Nc1ccc2c(c1)OCCn1cc(N3C(=O)OCC3C(F)F)nc1-2)C(N)=O", "note": "(stereo unspecified) + C=CC(=O)N1CCN(c2nc(OCC3CCCN3C)nc3c(F)c(-c4nc(N)cc(C)c4C(F)(F)F)c(Cl)cc23)C(C)C1", "viability, T/C": 42.7},
      {"smiles": "C[C@@H](NC(=O)c1ncnc(N)c1Cl)c1ncc(C(=O)Nc2cc(C(F)(F)F)c(Cl)cn2)s1", "note": "+ C=CC(=O)N1CCN(c2nc(OCC3CCCN3C)nc3c(F)c(-c4nc(N)cc(C)c4C(F)(F)F)c(Cl)cc23)C(C)C1", "viability, T/C": 96.2},
      {"smiles": "O=C(c1ccc(F)c(F)c1Nc1ccc(I)cc1F)N1CC(O)([C@@H]2CCCCN2)C1", "note": "+ C=CC(=O)N1CCN(c2nc(OCC3CCCN3C)nc3c(F)c(-c4nc(N)cc(C)c4C(F)(F)F)c(Cl)cc23)C(C)C1", "viability, T/C": 20.3}
    ]},
    {"tested_on": "521955-158-R2-J5-PDC complex spheroids, viability", "assay": "Anticancer human tumor 521955-158-R2-J5-PDC cell line growth inhibition [RAS];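 note: spheroids also contain HUVEC endothelial cells and mesenchymal stem cells as stroma; compound exposure lasted seven days before the viability read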", "conditions": "second compound 0.316 µM; first compound 3.16 µM; stronger effect = lower value", "in_short": "as §1", "units": {"viability, T/C": "%"}, "values": [
      {"smiles": "CC(C)NCC(C(=O)N1CCN(c2ncnc3c2C(C)CC3O)CC1)c1ccc(Cl)cc1", "note": "(stereo unspecified) + C=CC(=O)N1CCN(c2nc(OCC3CCCN3C)nc3c(F)c(-c4nc(N)cc(C)c4C(F)(F)F)c(Cl)cc23)C(C)C1", "viability, T/C": 59.6},
      {"smiles": "CC(Nc1ccc2c(c1)OCCn1cc(N3C(=O)OCC3C(F)F)nc1-2)C(N)=O", "note": "(stereo unspecified) + C=CC(=O)N1CCN(c2nc(OCC3CCCN3C)nc3c(F)c(-c4nc(N)cc(C)c4C(F)(F)F)c(Cl)cc23)C(C)C1", "viability, T/C": 33.3},
      {"smiles": "C[C@@H](NC(=O)c1ncnc(N)c1Cl)c1ncc(C(=O)Nc2cc(C(F)(F)F)c(Cl)cn2)s1", "note": "+ C=CC(=O)N1CCN(c2nc(OCC3CCCN3C)nc3c(F)c(-c4nc(N)cc(C)c4C(F)(F)F)c(Cl)cc23)C(C)C1", "viability, T/C": 79.5}
    ]},
    {"tested_on": "521955-158-R2-J5-PDC complex spheroids, viability", "assay": "Anticancer human tumor 521955-158-R2-J5-PDC cell line growth inhibition [RAS]", "conditions": "second compound 0.316 µM; first compound 10 µM; stronger effect = lower value", "in_short": "as §1", "units": {"viability, T/C": "%"}, "values": [
      {"smiles": "CC(C)NCC(C(=O)N1CCN(c2ncnc3c2C(C)CC3O)CC1)c1ccc(Cl)cc1", "note": "(stereo unspecified) + C=CC(=O)N1CCN(c2nc(OCC3CCCN3C)nc3c(F)c(-c4nc(N)cc(C)c4C(F)(F)F)c(Cl)cc23)C(C)C1", "viability, T/C": 49.9},
      {"smiles": "CC(Nc1ccc2c(c1)OCCn1cc(N3C(=O)OCC3C(F)F)nc1-2)C(N)=O", "note": "(stereo unspecified) + C=CC(=O)N1CCN(c2nc(OCC3CCCN3C)nc3c(F)c(-c4nc(N)cc(C)c4C(F)(F)F)c(Cl)cc23)C(C)C1", "viability, T/C": 22.5},
      {"smiles": "C[C@@H](NC(=O)c1ncnc(N)c1Cl)c1ncc(C(=O)Nc2cc(C(F)(F)F)c(Cl)cn2)s1", "note": "+ C=CC(=O)N1CCN(c2nc(OCC3CCCN3C)nc3c(F)c(-c4nc(N)cc(C)c4C(F)(F)F)c(Cl)cc23)C(C)C1", "viability, T/C": 57.1}
    ]},
    {"tested_on": "521955-158-R2-J5-PDC complex spheroids, viability", "assay": "Anticancer human tumor 521955-158-R2-J5-PDC cell line growth inhibition [RAS]", "conditions": "second compound 1 µM; first compound 0.000316 µM; stronger effect = lower value", "in_short": "as §1", "units": {"viability, T/C": "%"}, "values": [
      {"smiles": "CC(C)n1nc(-c2ccc3oc(N)nc3c2)c2c(N)ncnc21", "note": "+ C=CC(=O)N1CCN(c2nc(OCC3CCCN3C)nc3c(F)c(-c4nc(N)cc(C)c4C(F)(F)F)c(Cl)cc23)C(C)C1", "viability, T/C": 149}
    ]},
    {"tested_on": "521955-158-R2-J5-PDC complex spheroids, viability", "assay": "Anticancer human tumor 521955-158-R2-J5-PDC cell line growth inhibition [RAS]", "conditions": "second compound 1 µM; first compound 0.001 µM; stronger effect = lower value", "in_short": "as §1", "units": {"viability, T/C": "%"}, "values": [
      {"smiles": "CC(C)n1nc(-c2ccc3oc(N)nc3c2)c2c(N)ncnc21", "note": "+ C=CC(=O)N1CCN(c2nc(OCC3CCCN3C)nc3c(F)c(-c4nc(N)cc(C)c4C(F)(F)F)c(Cl)cc23)C(C)C1", "viability, T/C": 90.5}
    ]},
    {"tested_on": "521955-158-R2-J5-PDC complex spheroids, viability", "assay": "Anticancer human tumor 521955-158-R2-J5-PDC cell line growth inhibition [RAS]", "conditions": "second compound 1 µM; first compound 0.00316 µM; stronger effect = lower value", "in_short": "as §1", "units": {"viability, T/C": "%"}, "values": [
      {"smiles": "CC(C)n1nc(-c2ccc3oc(N)nc3c2)c2c(N)ncnc21", "note": "+ C=CC(=O)N1CCN(c2nc(OCC3CCCN3C)nc3c(F)c(-c4nc(N)cc(C)c4C(F)(F)F)c(Cl)cc23)C(C)C1", "viability, T/C": 87.6}
    ]}
  ]
}
